ChEMBL document CHEMBL1201862, “PubChem BioAssay data set” (2004)
Calls of active or inactive are those of the source.

Experiments:
[1] = biological target: Adenosylmethionine-8-amino-7-oxononanoate aminotransferase (Mycobacterium tuberculosis, UniProt P9WQ81); assay: Mycobacterium tuberculosis BioA enzyme inhibitor Measured in Biochemical System Using Plate Reader - 2163-02_Inhibitor_Dose_CherryPick_Activity.; type: functional, Mycobacterium tuberculosis UT205
[2] = biological target: T1, Heat shock factor protein 1 (Mus musculus, UniProt P38532); assay: decrease of HSF1-responsive luciferase luminescence – cell-based, NIH3T3, dose retest, confirmation (AID 2382); type: functional;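 note: NIH3T3 fibroblasts with HSF1-driven luciferase reporter stressed by proteasome inhibitor MG132; luminescence from HSF1-driven luciferase expression after 8 hours of MG132 stress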
T1 sequence (P38532 whole entry): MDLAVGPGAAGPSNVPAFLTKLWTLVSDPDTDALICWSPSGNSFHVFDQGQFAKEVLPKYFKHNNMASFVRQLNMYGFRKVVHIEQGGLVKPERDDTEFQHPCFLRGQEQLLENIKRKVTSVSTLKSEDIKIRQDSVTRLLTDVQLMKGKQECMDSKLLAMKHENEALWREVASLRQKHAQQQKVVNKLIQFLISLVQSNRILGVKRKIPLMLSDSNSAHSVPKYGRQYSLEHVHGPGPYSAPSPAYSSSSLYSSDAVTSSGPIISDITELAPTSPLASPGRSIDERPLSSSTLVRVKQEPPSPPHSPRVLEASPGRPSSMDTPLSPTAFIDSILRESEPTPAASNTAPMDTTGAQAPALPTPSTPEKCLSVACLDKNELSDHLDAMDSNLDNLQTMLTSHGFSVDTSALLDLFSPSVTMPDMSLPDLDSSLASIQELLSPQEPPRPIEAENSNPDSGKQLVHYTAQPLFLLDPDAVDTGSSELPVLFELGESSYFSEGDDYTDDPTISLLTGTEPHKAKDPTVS

[3] = biological target: Ras and Rab interactor 1/Tyrosine-protein kinase ABL1 (Homo sapiens, UniProt P00519+Q13671); type: functional;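 note: biochemical TR-FRET dose-response test measuring inhibition of binding between Rin1 and Abl proteins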
Sequence of Ras and Rab interactor 1/Tyrosine-protein kinase ABL1 (P00519 whole entry): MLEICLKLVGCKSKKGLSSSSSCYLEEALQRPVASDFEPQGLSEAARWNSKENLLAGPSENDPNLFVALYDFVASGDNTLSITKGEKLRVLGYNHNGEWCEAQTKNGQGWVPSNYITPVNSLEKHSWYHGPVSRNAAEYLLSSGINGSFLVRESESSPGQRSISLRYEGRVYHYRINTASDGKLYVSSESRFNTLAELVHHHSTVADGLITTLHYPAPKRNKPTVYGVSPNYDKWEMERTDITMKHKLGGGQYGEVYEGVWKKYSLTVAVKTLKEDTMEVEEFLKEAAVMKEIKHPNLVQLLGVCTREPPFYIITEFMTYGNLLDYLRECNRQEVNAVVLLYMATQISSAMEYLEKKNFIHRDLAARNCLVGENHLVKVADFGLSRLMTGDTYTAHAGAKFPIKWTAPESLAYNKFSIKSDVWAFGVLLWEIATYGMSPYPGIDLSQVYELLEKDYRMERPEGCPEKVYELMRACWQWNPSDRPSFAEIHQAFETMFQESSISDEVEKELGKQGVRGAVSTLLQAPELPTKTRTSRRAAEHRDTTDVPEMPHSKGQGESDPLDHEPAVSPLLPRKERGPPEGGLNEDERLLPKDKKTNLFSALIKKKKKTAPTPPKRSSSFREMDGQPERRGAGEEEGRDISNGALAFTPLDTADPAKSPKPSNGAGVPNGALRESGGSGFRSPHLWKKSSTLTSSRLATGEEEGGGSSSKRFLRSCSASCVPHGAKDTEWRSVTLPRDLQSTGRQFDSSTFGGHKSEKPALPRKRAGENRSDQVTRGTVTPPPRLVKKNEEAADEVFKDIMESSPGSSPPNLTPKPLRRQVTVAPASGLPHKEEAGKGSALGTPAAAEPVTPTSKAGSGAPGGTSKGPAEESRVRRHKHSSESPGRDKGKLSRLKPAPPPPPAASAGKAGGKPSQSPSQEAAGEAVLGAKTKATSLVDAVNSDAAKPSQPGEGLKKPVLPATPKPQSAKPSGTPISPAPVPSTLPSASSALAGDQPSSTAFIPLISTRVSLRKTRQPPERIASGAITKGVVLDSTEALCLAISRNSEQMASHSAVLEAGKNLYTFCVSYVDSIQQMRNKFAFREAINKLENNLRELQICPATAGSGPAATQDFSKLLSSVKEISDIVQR
Sequence of Ras and Rab interactor 1/Tyrosine-protein kinase ABL1 (Q13671 whole entry): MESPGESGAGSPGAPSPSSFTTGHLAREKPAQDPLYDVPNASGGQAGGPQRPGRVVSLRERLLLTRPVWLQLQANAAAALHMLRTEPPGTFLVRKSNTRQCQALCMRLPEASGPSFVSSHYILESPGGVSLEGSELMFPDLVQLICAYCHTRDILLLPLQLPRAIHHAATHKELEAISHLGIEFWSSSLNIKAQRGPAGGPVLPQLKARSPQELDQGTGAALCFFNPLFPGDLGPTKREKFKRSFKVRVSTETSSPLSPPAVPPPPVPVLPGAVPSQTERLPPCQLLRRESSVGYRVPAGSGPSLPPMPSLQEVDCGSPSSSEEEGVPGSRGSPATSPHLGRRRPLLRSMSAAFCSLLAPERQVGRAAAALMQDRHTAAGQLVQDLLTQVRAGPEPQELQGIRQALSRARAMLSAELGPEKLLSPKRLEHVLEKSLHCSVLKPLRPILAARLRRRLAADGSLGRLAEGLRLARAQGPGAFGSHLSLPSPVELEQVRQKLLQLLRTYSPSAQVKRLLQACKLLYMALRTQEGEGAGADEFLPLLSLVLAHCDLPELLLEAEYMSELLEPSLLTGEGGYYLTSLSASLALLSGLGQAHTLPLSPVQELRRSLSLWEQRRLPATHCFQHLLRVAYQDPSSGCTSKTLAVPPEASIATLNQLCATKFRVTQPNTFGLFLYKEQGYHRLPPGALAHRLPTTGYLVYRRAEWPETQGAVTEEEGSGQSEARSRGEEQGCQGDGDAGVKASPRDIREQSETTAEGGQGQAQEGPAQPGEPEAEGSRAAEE

[4] = viability loss in HeLa cells – cytotoxicity control for MgcRacGAP inhibitor project, dose response (AID 624300); type: functional
[5] = biological target: Mitochondrial peptide methionine sulfoxide reductase (Bos taurus, UniProt P54149); type: functional;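 note: absorbance read-out, biochemical high-throughput dose-response screen for MsrA inhibitors, confirmatory; recombinant bovine MsrA coupled to E. coli TrxB with NADPH and selenocystamine; potency is for inhibitors of MsrA activity on DMSO substrate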
Sequence of Mitochondrial peptide methionine sulfoxide reductase (P54149 whole entry): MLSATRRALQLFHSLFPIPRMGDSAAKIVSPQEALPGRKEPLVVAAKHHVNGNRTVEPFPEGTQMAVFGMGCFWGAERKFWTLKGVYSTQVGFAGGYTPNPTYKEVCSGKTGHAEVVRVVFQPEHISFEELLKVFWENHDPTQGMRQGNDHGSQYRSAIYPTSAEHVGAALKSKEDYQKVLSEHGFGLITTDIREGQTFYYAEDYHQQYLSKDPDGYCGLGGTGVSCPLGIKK

[6] = blockers of CRF-binding protein–CRF-R2 complex – cell-based, uHTS hits, 384-well, dose response (AID 651639); type: functional, Homo sapiens; conditions: read-out: IC50_Mean
[7] = biological target: T2, Corticotropin-releasing factor receptor 2/Corticotropin-releasing factor-binding protein (Homo sapiens, UniProt P24387+Q13324); assay: Dose Response confirmation of uHTS hits for small molecule antagonists of the CRF-binding protein and CRF-R2 receptor complex.; type: functional; conditions: read-out: IC50_Mean
T2 sequence (Q13324 whole entry): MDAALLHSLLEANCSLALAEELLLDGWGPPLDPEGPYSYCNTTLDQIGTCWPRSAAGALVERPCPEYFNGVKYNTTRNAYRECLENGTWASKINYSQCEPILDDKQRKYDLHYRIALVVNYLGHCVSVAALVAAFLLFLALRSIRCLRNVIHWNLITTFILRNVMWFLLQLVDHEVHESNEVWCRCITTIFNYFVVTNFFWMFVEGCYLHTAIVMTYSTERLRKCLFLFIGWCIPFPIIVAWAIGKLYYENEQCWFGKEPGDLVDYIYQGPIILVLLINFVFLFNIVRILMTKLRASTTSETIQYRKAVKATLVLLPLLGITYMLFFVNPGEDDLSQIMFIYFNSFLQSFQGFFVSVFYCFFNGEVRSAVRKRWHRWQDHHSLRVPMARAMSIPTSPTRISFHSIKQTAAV
T2 sequence (P24387 whole entry): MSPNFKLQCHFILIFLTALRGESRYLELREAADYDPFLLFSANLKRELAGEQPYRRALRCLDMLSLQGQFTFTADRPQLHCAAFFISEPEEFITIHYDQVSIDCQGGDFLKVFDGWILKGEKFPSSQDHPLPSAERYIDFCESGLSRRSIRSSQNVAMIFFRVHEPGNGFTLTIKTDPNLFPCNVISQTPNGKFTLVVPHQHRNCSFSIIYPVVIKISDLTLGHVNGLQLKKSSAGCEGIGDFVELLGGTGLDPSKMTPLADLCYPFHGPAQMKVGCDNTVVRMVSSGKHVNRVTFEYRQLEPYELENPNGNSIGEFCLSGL

[8] = biological target: T2, Corticotropin-releasing factor receptor 2/Corticotropin-releasing factor-binding protein; assay: activators of CRF receptor 2 with binding protein – uHTS hits, confirmation (AID 602473); type: functional; conditions: read-out: EC50_Mean
[9] = biological target: T3, Calpain-2 catalytic subunit (Sus scrofa, UniProt P43367); assay: m-calpain protease blockers, concentration series – biochemical, fluorogenic peptide substrate, dose response (AID 1420); type: functional
T3 sequence (P43367 whole entry): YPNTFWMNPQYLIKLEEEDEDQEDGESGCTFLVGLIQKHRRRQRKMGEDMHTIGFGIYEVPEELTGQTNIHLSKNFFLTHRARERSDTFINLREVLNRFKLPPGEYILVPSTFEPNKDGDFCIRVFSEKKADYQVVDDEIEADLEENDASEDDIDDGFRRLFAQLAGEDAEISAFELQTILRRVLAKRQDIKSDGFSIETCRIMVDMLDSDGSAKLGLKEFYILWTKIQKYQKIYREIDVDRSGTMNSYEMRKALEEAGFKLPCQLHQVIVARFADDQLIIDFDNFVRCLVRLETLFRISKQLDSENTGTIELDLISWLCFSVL

[10] = biological target: T1, Heat shock factor protein 1; assay: enhancement of HSF1-driven luciferase signal – cell-based, NIH3T3, luminescence, dose retest, confirmation (AID 435004); type: functional;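 note: stress induced by proteasome inhibitor MG132 added 30 min after compound; luciferase reporter driven by HSF1 response element in NIH3T3 cells; actives raise luminescence as potentiators of the MG132 stress response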
[11] = biological target: Broad substrate specificity ATP-binding cassette transporter ABCG2 (Homo sapiens, UniProt Q9UNQ0); assay: blockers of JC-1 export by ABCG2 – Ig-MXP3 cells, flow cytometry, dose response (AID 1690); type: functional
Sequence of Broad substrate specificity ATP-binding cassette transporter ABCG2 (Q9UNQ0 whole entry): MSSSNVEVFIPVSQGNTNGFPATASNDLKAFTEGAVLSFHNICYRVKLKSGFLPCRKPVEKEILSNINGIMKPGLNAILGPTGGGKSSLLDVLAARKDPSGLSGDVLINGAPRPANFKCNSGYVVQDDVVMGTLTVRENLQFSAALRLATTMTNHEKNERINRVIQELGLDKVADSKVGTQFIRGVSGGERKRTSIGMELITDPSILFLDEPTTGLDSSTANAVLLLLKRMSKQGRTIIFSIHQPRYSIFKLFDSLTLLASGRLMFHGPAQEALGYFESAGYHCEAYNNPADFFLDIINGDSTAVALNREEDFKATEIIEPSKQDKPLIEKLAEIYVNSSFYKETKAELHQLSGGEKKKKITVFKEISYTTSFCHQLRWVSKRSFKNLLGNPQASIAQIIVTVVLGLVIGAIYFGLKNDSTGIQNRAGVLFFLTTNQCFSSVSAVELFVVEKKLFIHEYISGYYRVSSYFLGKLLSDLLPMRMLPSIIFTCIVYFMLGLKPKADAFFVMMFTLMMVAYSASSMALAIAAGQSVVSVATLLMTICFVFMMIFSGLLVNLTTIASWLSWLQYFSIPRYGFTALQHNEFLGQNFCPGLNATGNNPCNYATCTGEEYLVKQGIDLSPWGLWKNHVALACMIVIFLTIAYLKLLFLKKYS

[12] = biological target: ATP-dependent translocase ABCB1 (Homo sapiens, UniProt P08183); assay: inhibition of P-gp mediated JC-1 efflux – Jurkat-DNR cells, flow cytometry, dose response (AID 1689); type: functional
Sequence of ATP-dependent translocase ABCB1 (P08183 whole entry): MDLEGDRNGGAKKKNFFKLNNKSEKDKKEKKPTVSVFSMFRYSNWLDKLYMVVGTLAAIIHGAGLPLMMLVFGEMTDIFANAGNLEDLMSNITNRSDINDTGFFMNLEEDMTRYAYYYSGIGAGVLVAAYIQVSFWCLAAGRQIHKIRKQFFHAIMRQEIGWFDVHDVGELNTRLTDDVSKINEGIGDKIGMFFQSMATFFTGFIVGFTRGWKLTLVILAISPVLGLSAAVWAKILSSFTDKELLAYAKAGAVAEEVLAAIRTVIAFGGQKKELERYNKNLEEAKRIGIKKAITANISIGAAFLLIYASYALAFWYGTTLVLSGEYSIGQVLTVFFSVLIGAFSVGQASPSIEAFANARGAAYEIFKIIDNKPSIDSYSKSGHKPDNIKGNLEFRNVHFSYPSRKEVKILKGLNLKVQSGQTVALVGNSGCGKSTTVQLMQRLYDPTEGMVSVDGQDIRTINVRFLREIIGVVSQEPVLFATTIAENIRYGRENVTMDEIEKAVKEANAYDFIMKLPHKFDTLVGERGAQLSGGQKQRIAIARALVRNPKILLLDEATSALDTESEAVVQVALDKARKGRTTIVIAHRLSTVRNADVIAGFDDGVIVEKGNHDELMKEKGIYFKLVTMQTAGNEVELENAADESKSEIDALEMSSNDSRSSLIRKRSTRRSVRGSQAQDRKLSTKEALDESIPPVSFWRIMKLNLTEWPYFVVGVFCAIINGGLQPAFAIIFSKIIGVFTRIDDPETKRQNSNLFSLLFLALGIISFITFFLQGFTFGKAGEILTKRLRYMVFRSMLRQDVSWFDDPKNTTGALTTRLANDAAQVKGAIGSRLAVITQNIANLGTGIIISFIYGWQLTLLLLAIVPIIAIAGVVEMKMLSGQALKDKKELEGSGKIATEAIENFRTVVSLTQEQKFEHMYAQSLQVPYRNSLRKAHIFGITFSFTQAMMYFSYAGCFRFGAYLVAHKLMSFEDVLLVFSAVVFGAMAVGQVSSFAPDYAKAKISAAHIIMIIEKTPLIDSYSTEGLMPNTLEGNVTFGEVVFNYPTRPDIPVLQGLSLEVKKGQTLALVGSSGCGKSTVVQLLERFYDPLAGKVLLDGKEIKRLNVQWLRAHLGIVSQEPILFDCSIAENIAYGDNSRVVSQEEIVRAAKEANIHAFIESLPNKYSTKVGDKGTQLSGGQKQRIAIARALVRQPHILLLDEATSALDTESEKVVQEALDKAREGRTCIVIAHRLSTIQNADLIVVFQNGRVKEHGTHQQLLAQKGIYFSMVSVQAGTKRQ

[13] = biological target: T4, Interleukin-8 (Homo sapiens, UniProt P10145); assay: Dose Response confirmation of uHTS small molecule hits for cystic fibrosis induced NFkb Inhibitors in a PAF-induced IL8 counterscreen.; type: functional; conditions: read-out: IC50_Mean
T4 sequence (P10145 whole entry): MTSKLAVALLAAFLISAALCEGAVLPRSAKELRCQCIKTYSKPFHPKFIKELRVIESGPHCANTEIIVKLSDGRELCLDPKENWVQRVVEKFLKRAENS

[14] = biological target: T4, Interleukin-8; assay: Dose Response confirmation of uHTS small molecule hits for cystic fibrosis induced NFkb Inhibitors in a TNFa-induced IL8 counterscreen.; type: functional; conditions: read-out: IC50_Mean
[15] = biological target: Dual specificity protein phosphatase 3 (Homo sapiens, UniProt P51452); assay: VHR phosphatase inhibition, dose response, selectivity assay for STEP inhibitor project, biochemical (AID 602374); type: functional; conditions: read-out: IC50_Mean
Sequence of Dual specificity protein phosphatase 3 (P51452 whole entry): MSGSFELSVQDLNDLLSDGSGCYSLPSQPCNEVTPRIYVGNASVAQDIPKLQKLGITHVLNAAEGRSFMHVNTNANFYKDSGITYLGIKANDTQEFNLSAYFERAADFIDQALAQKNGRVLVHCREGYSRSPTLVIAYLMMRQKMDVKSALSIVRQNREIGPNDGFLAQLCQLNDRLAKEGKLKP

[16] = biological target: Tyrosine-protein phosphatase non-receptor type 5 (Homo sapiens, UniProt P54829); assay: PTPN5 enzyme inhibition – biochemical, fluorescence intensity, uHTS hits, confirmation (AID 602372); type: functional; conditions: read-out: IC50_Mean
[17] = biological target: Tyrosine-protein phosphatase non-receptor type 11 (Homo sapiens, UniProt Q06124); assay: PTPN11 enzyme inhibitors – biochemical, selectivity assay for STEP inhibitor project, dose response (AID 602367); type: functional; conditions: read-out: IC50_Mean
Sequence of Tyrosine-protein phosphatase non-receptor type 11 (Q06124 whole entry): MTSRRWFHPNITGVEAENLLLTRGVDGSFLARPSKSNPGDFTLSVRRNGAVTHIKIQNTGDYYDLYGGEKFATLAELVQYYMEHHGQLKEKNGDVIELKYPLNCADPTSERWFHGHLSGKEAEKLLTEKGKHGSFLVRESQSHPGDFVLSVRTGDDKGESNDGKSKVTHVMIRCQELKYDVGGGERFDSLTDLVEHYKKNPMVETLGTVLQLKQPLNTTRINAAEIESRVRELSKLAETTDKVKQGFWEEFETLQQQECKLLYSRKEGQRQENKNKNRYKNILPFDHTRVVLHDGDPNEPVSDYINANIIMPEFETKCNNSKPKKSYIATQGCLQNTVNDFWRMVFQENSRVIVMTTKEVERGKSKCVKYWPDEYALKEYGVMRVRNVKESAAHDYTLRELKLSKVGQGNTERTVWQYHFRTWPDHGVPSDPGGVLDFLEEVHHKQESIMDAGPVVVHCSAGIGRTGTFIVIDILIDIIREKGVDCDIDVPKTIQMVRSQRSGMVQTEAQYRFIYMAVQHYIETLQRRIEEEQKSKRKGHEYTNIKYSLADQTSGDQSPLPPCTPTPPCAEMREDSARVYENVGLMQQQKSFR

[18] = biological target: T5, Rac GTPase-activating protein 1 (Homo sapiens, UniProt Q9H0H5); assay: blockers of MgcRacGAP-driven Rac1 GTP hydrolysis – biochemical, ADP Hunter fluorescence, primary and confirmatory, confirmation (AID 624330); type: functional
T5 sequence (Q9H0H5 whole entry): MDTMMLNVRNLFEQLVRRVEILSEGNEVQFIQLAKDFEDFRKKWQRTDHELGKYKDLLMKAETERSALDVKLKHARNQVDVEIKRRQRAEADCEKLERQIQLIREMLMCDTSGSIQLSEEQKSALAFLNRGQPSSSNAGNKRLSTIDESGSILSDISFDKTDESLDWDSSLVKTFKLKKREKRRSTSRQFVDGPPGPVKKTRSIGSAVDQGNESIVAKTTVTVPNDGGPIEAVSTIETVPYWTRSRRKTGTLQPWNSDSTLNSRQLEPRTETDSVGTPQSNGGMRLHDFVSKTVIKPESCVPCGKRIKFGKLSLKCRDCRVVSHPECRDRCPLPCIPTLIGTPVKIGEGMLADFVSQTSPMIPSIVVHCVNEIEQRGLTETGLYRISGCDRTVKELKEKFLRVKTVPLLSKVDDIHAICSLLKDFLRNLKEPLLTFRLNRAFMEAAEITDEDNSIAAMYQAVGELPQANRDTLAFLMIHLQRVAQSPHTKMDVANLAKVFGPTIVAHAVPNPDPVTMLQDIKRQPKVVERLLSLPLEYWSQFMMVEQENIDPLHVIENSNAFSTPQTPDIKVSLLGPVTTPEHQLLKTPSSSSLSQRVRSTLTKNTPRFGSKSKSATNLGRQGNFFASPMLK

[19] = NIH3T3 cell viability loss – ATP luminescence, mouse fibroblasts, counter-screen, dose response (AID 2010); type: functional, cell-based;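 note: cells exposed to compound for about 90 hours before reading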
[20] = Luminescence Cell-Based Dose Retest to Confirm Inhibitors of Cancer Stem Cells. [Related pubchem assays (depositor defined):AID2717, AID2721]; type: functional; conditions: Homo sapiens
[21] = biological target: T6, High affinity choline transporter 1 (Homo sapiens, UniProt Q9GZV3); assay: human choline transporter blockers, potency – cell-based, 5-point CRC, membrane potential dye, dose response (AID 504840); type: functional
T6 sequence (Q9GZV3 whole entry): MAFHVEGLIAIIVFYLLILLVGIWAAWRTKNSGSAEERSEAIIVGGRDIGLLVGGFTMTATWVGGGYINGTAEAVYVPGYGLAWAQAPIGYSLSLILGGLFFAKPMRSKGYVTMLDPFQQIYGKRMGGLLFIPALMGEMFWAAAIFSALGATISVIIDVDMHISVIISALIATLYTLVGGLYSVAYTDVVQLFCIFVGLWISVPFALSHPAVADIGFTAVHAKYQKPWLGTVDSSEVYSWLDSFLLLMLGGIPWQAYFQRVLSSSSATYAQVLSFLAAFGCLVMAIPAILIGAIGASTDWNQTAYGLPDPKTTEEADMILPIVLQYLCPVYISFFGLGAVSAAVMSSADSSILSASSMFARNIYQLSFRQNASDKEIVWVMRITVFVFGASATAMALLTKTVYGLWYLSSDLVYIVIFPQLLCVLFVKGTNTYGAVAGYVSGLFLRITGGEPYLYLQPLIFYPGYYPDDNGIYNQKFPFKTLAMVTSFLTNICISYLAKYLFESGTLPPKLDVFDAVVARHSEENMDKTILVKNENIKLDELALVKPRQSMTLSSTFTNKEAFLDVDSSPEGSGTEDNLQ

[22] = Trypanosoma cruzi growth suppression in host cells – NIH3T3 host cells, beta-gal luminescence, confirmation (AID 2044); type: functional, cell-based;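 note: intracellular parasites grown in NIH/3T3 mouse fibroblasts as host cells; luminescent beta-galactosidase reporter signal from transgenic T. cruzi replicating inside host cells; inhibitors lower the luminescence signal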

For COCCN1C(=O)c2ccc(C(=O)Nc3cccnc3)cc2C1=O, the AC50 [1] was 4.26 µM (active).

In the case of CCCn1c2ccccc2c2nnc(SCc3[nH]c(O)nc3C(=O)CCCCC(=O)OCC)nc21, the EC50 [2] is reported as > 195 µM (not active) and the IC50 [3] is reported as 3.23 µM (active).

In the case of COc1cc2nc(S)nc(NCCc3ccc(S(N)(=O)=O)cc3)c2cc1OC, the CC50 [4] is reported as 100 µM (active).

For Sc1nnc(C2CCCCC2)n1/N=C/c1ccccc1Cl, the IC50 [5] was 155 µM (inactive).

For Cc1cc(C(=O)N2CCN(c3ccc([N+](=O)[O-])cc3)CC2)co1, the IC50 [6] was > 20 µM (inactive), the IC50 [7] was 36.1 µM (active) and the EC50 [8] was > 53 µM (inactive).

With CCN(/N=C/C=C/c1ccccc1)c1cc(=O)n(C)c(=O)[nH]1 the IC50 [5] was 155 µM (inactive), the IC50 [9] was 13.1 µM (not active) and the EC50 [10] was > 260 µM (inactive).

For Cc1cc(C)n(-c2ccc(Cl)c(C(=O)Nc3cc(C(F)(F)F)ccc3Cl)n2)n1, the EC50 [11] was 0.24 µM (inactive) and the EC50 [12] was 5.21 µM (inactive).

In the case of CC(=O)c1cccc(NC(=O)Nc2cccnc2)c1, the IC50 [13] is reported as 45.7 µM (inactive) and the IC50 [14] is reported as 43.8 µM (inactive).

With Cc1ccc(-c2nc3ncccc3o2)cc1NC(=O)CC(C)C the IC50 [15] was > 80 µM (inactive), the IC50 [16] was > 80 µM (inactive) and the IC50 [17] was > 80 µM (inactive).

In the case of Cc1ccc(CSCC(=O)Nc2cc(S(=O)(=O)N3CCOCC3)ccc2OC(C)C)cc1, the IC50 [6] is reported as > 20 µM (inactive), the IC50 [7] is reported as < 0.368 µM (active) and the EC50 [8] is reported as > 53 µM (inactive).

In the case of CCOCCCNC(=O)/C(C#N)=C/c1ccc([N+](=O)[O-])o1, the IC50 [18] is reported as 149 µM (active), the CC50 [4] is reported as 96.6 µM (active) and the EC50 [19] is reported as 4.2 µM (active). For the same molecule, the AC50 [20] was 5.62 µM (active), the IC50 [21] was 4.79 µM (active) and the EC50 [22] was 3.08 µM (active).

For CCn1c(Oc2ccccc2F)nc2c1c(=O)n(C)c(=O)n2C, the IC50 [13] was 21 µM (inactive) and the IC50 [14] was 4.08 µM (active).
